Literature values as cited in US20100209348A1, “METHODS FOR DETERMINING LIPOSOME BIOEQUIVALENCE” (Arondo Pharma, Inc., priority 2009, published 2010).
Structures can show the parent of a compound that is named as a salt.

Details: IV infusion up to 60 min, up to 60 mg/m^2 every 3 weeks (dose rate 20 mg/m^2/week)

Which “clinically significant PPE” value does the source give for `COc1cccc2c1C(=O)c1c(O)c3c(c(O)c1C2=O)C[C@@](O)(C(=O)CO)C[C@@H]3O[C@H]1C[C@H](N)[C@H](O)[C@H](C)O1` [doxorubicin, Doxorubicin HCl] here?
Its value is “does not typically cause clinically significant PPE”.
